Reference: patent US6936607B2, “2,4,6-Triaminopyrimidines for the treatment of depression and/or anxiety” (H. Lunobeck A/S, priority 2002, dated 2005)

Molecular target: T1, human GalR3 receptor (Homo sapiens, UniProt O60755)
T1 construct: expressed in transfected cells; host or cells: mouse fibroblast LM(tk-) cells, stably transfected; membranes
T1 sequence (O60755 1-368): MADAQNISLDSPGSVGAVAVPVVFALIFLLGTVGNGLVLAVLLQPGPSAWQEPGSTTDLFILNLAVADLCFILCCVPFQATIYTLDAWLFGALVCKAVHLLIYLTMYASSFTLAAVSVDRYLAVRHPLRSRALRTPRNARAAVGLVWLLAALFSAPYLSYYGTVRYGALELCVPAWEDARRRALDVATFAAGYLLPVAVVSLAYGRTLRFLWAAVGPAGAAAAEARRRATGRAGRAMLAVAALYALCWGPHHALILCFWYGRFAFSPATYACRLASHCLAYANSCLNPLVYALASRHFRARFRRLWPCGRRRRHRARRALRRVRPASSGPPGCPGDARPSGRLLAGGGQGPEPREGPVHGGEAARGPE
Assay: Radioligand binding assay at cloned human GalR3 receptor
Conditions: Binding Data; membranes from LM(tk-) cells stably transfected with the human GalR3 receptor
Description: LM(tk-) cells were stably transfected with the human GalR3 receptor. cDNAs for the human and rat GalR3 receptors were transfected with a G-418 resistant gene into the mouse fibroblast LM(tk-) cell line by a calcium phosphate transfection method (Cullen, 1987). Membranes were harvested from stably transfected LM(tk-) cells. Adherent cells were washed twice in ice-cold phosphate buffered saline (138 mM NaCl, 8.1 mM Na2HPO4, 2.5 mM KCl, 1.2 mM KH2PO4, 0.9 mM CaCl2, 0.5 mM MgCl2, pH 7.4) and lysed by sonication in ice-cold sonication buffer (20 mM Tris-HCl, 5 mM EDTA, pH 7.7). Large particles and debris were cleared by low speed centrifugation (200×g, 5 min, 4° C.). Membranes were collected from the supernatant fraction by centrifugation (32,000×g, 18 min, 4° C.), washed with ice-cold hypotonic buffer, and collected again by centrifugation (32,000×g, 18 min, 4° C.). The final membrane pellet was resuspended by sonication into a small volume of ice-cold binding buffer (˜1 ml for every 5 plates: 10 mM NaCl, 20 mM HEPES, 0.22 mM KH2PO4, 1.26 mM CaCl2, 0.81 mM MgSO4, pH 7.4). Protein concentration was measured by the Bradford method (Bradford, 1976) using Bio-Rad Reagent, with bovine serum albumin as a standard. Membranes were held on ice for up to one hour and used fresh, or flash frozen and stored in liquid nitrogen. Membranes were prepared similarly from CHO cells. The methods to obtain the cDNA of the receptors, express said receptors in heterologous systems, and carry out assays to determine binding affinity are described as follows. Binding assays were performed according to the following published method: human GALR3 (PCT International Publication No. WO 02/060392).

| Structure (SMILES) | Ki |
| --- | --- |
| CN(C)c1cc(Nc2cccc(OCc3ccccc3)c2)nc(N2CCN(c3ncccn3)CC2)n1 [Example 41, N-[3-(BENZYLOXY)PHENYL]-N^6,N^6-DIMETHYL-2-[4-(2-PYRIMIDINYL)-1-PIPERAZINYL]-4,6-PYRIMIDINEDIAMINE] | 0.014 µM |
| CN(C)c1cc(Nc2ccc(C3CCCCC3)cc2)nc(N2CCN(c3ccc(Cl)cc3)CC2)n1 [Example 10, 2-[4-(4-CHLOROPHENYL)-1-PIPERAZINYL]-N^4-(4-CYCLOHEXYLPHENYL)-N^6,N^6-DIMETHYL-4,6-PYRIMIDINEDIAMINE] | 0.047 µM |
| CN(C)c1cc(Nc2cccc(OCc3ccccc3)c2)nc(N2CCN(c3ccccc3Cl)CC2)n1 [Example 25, N^4-[3-(BENZYLOXY)PHENYL]-2-[4-(2-CHLOROPHENYL)-1-PIPERAZINYL]-N^6,N^6-DIMETHYL-4,6-PYRIMIDINEDIAMINE] | 0.016 µM |
| CN(C)c1cc(Nc2ccc(Cl)c(Cl)c2)nc(N2CCN(c3cccc(Cl)c3)CC2)n1 [Example 16, 2-[4-(3-CHLOROPHENYL)-1-PIPERAZINYL]-N^4-(3,4-DICHLOROPHENYL)-N^6,N^6-DIMETHYL-4,6-PYRIMIDINEDIAMINE] | 0.034 µM |
| Cc1ccc(Nc2cc(N(C)C)nc(N3CCN(c4ccccc4Cl)CC3)n2)cc1 [Example 3, 2-[4-(2-CHLOROPHENYL)-1-PIPERAZINYL]-N^4,N^4-DIMETHYL-N^6-(4-METHYLPHENYL)-4,6-PYRIMIDINEDIAMINE] | 0.029 µM |
| C[C@H]1CN(c2nc(Nc3cccc(OCc4ccccc4)c3)cc(N(C)C)n2)C[C@H](C)O1 (racemic) [Example 48, (±)-N^4-[3-(BENZYLOXY)PHENYL]-2-(TRANS-2,6-DIMETHYL MORPHOLINYL)-N^6,N^6-DIMETHYL-4,6-PYRIMIDINEDIAMINE] | 0.03 µM |
| Cc1ccc(Nc2cc(N(C)C)nc(N3CCN(c4ccccn4)CC3)n2)c(NC(C)C)c1 [Example 45, N^4-[2-(ISOPROPYLAMINO)-4-METHYLPHENYL]-N^6,N^6-DIMETHYL-2-[4-(2-PYRIDINYL)-1-PIPERAZINYL]-4,6-PYRIMIDINEDIAMINE] | 0.506 µM |
| CCC(C)Nc1cc(Nc2cc(N(C)C)nc(N3C[C@@H](C)O[C@@H](C)C3)n2)ccc1C (stereo partly drawn) [Example 50, N^4-[3-(SEC-BUTYLAMINO)-4-METHYLPHENYL]-2-[CIS-2,6-DIMETHYL MORPHOLINYL]-N^6,N^6-DIMETHYL-4,6-PYRIMIDINEDIAMINE] | 0.312 µM |
| Cc1ccc(Nc2cc(N(C)C)nc(N3CCN(c4ccccn4)CC3)n2)cc1NC(C)C [Example 26, N^4-[3-(ISOPROPYLAMINO)-4-METHYLPHENYL]-N^6,N^6-DIMETHYL-2-[4-(2-PYRIDINYL)-1-PIPERAZINYL]-4,6-PYRIMIDINEDIAMINE] | 0.246 µM |
| CCN(CC)c1cc(C)ccc1Nc1cc(N(C)C)nc(N2CCN(c3ccccn3)CC2)n1 [Example 44, N^4-[2-(DIETHYLAMINO)-4-METHYLPHENYL]-N^6,N^6-DIMETHYL-2-[4-(2-PYRIDINYL)-1-PIPERAZINYL]-4,6-PYRIMIDINEDIAMINE] | 0.314 µM |
| CN(C)c1cc(Nc2ccc(Cl)c(Cl)c2)nc(N2CCN(c3ccccc3F)CC2)n1 [Example 29, N^4-(3,4-DICHLOROPHENYL)-2-[4-(2-FLUOROPHENYL)-1-PIPERAZINYL]-N^6,N^6-DIMETHYL-4,6-PYRIMIDINEDIAMINE] | 0.027 µM |
| CN(C)c1cc(Nc2cccc(OCc3ccccc3)c2)nc(N2CCN(c3cccc(Cl)c3)CC2)n1 [Example 27, N^4-[3-(BENZYLOXY)PHENYL]-2-[4-(3-CHLOROPHENYL)-1-PIPERAZINYL]-N^6,N^6-DIMETHYL-4,6-PYRIMIDINEDIAMINE] | 0.028 µM |
| CN(C)c1cc(Nc2cccc(OCc3ccccc3)c2)nc(N2CCCC2)n1 [Example 37, N^4-[3-(BENZYLOXY)PHENYL]-N^6,N^6-DIMETHYL-2-(1-PYRROLIDINYL)-4,6-PYRIMIDINEDIAMINE] | 0.059 µM |
| COc1cccc(Nc2cc(N(C)C)nc(N3CCN(c4ccccc4F)CC3)n2)c1 [Example 13, 2-[4-(2-FLUOROPHENYL)-1-PIPERAZINYL]-N^4-(3-METHOXYPHENYL)-N^6,N^6-DIMETHYL-4,6-PYRIMIDINEDIAMINE] | 0.093 µM |
| Cc1ccc(Nc2cc(N(C)C)nc(N3CCN(c4ccc(Cl)cc4)CC3)n2)cc1 [Example 7, 2-[4-(4-CHLOROPHENYL)-1-PIPERAZINYL]-N^4,N^4-DIMETHYL-N^6-(4-METHYLPHENYL)-4,6-PYRIMIDINEDIAMINE] | 0.352 µM |
| COc1cccc(Nc2cc(N(C)C)nc(N3CCN(c4cccc(Cl)c4)CC3)n2)c1 [Example 8, 2-[4-(3-CHLOROPHENYL)-1-PIPERAZINYL]-N^4-(3-METHOXYPHENYL)-N^6,N^6-DIMETHYL-4,6-PYRIMIDINEDIAMINE] | 0.107 µM |
| CN(C)c1cc(Nc2cccc(OCc3ccccc3)c2)nc(N2CCc3ccccc32)n1 [Example 42, N^4-[3-(BENZYLOXY)PHENYL]-2-(2,3-DIHYDRO-1H-INDOL-1-YL)-N^6,N^6-DIMETHYL-4,6-PYRIMIDINEDIAMINE] | 0.091 µM |
| C[C@@H]1CN(c2nc(Nc3ccc(Cl)c(Cl)c3)cc(N(C)C)n2)C[C@H](C)O1 [Example 51, N^4-(3,4-DICHLOROPHENYL)-2-(CIS-2,6-DIMETHYLMORPHOLINYL)-N^6,N^6-DIMETHYL-4,6-PYRIMIDINEDIAMINE] | 0.081 µM |
| CCNc1cccc(Nc2cc(N(C)C)nc(N3CCN(Cc4ccccc4)CC3)n2)c1 [Example 33, 2-(4-BENZYL-1-PIPERAZINYL)-N^4-[3-(ETHYLAMINO)PHENYL]N^6,N^6-DIMETHYL-4,6-PYRIMIDINEDIAMINE] | 0.942 µM |
| CN(C)c1cc(Nc2cccc(OCc3ccccc3)c2)nc(N2CCCCC2)n1 [Example 36, N^4-[3-(BENZYLOXY)PHENYL]-N^6,N^6-DIMETHYL-2-(1-PIPERIDINYL)-4,6-PYRIMIDINEDIAMINE] | 0.023 µM |
| CN(C)c1cc(Nc2ccc(Cl)c(Cl)c2)nc(N2CCN(c3ccccc3Cl)CC2)n1 [Example 21, 2-[4-(2-CHLOROPHENYL)-1-PIPERAZINYL]-N^4-(3,4-DICHLOROPHENYL)-N^6,N^6-DIMETHYL-4,6-PYRIMIDINEDIAMINE] | 0.063 µM |
| O=C1CCN(c2cc(Nc3ccc(Cl)c(Cl)c3)nc(N3CCN(Cc4ccccc4)CC3)n2)CC1 [Example 53, 1-[2-(4-BENZYL-1-PIPERAZINYL)-6-(3,4-DICHLOROANILINO)-4-PYRIMIDINYL]-4-PIPERIDINONE] | 0.036 µM |
| Cc1ccc(Nc2cc(N(C)C)nc(N3CCN(c4ccccc4Cl)CC3)n2)cc1C [Example 17, 2-[4-(2-CHLOROPHENYL)-1-PIPERAZINYL]-N^4-(3,4-DIMETHYLPHENYL)-N^6,N^6-DIMETHYL-4,6-PYRIMIDINEDIAMINE] | 0.057 µM |
| CN(C)c1cc(Nc2cccc(OCc3ccccc3)c2)nc(N2CCN(c3ccccc3F)CC2)n1 [Example 24, N^4-[3-(BENZYLOXY)PHENYL]-2-[4-(2-FLUOROPHENYL)-1-PIPERAZINYL]-N^6,N^6-DIMETHYL-4,6-PYRIMIDINEDIAMINE] | 0.02 µM |
| COc1cccc(Nc2cc(N(C)C)nc(N3CCN(c4ccccc4Cl)CC3)n2)c1 [Example 11, 2-[4-(2-CHLOROPHENYL)-1-PIPERAZINYL]-N^4-(3-METHOXYPHENYL)-N^6,N^6-DIMETHYL-4,6-PYRIMIDINEDIAMINE] | 0.062 µM |
| CN(C)c1cc(Nc2ccc3c(c2)CCC3)nc(N2CCN(c3ccc(Cl)cc3)CC2)n1 [Example 6, 2-[4-(4-CHLOROPHENYL)-1-PIPERAZINYL]-N^4-(2,3-DIHYDRO-1H-INDEN-5-YL)-N^6,N^6-DIMETHYL-4,6-PYRIMIDINEDIAMINE] | 0.052 µM |
| CN(C)c1cc(Nc2cccc(OCc3ccccc3)c2)nc(N(C)CC2CCCO2)n1 (stereo not drawn) [Example 35, N^4-[3-(BENZYLOXY)PHENYL]-N^2,N^6,N^6-TRIMETHYL-N^2-(TETRAHYDRO-2-FURANYLMETHYL)-2,4,6-PYRIMIDINETRIAMINE] | 0.042 µM |
| Cc1ccc(Nc2cc(N(C)C)nc(NCc3ccccc3)n2)cc1 [Example 39, N^2-BENZYL-N^4,N^4-DIMETHYL-N^6-(4-METHYLPHENYL)-2,4,6-PYRIMIDINE TRIAMINE] | 0.114 µM |
| CN(C)c1cc(Nc2ccc(SC(F)(F)F)c(Cl)c2)nc(N2CCN(c3ccccc3Cl)CC2)n1 [Example 22, 2-[4-(2-CHLOROPHENYL)-1-PIPERAZINYL]-N^4-{3-CHLORO-4-[(TRIFLUOROMETHYL) SULFANYL]PHENYL}-N^6,N^6-DIMETHYL-4,6-PYRIMIDINE DIAMINE] | 0.182 µM |
| Cc1ccc(Nc2cc(N3CCN(c4ncccn4)CC3)nc(N3C[C@@H](C)O[C@@H](C)C3)n2)cc1 [Example 52, 2-(CIS-2,6-DIMETHYLMORPHOLINYL)-N-(4-METHYLPHENYL)-6-[4-(2-PYRIMIDINYL)-1-PIPERAZINYL]-4-PYRIMIDINAMINE] | 0.117 µM |
